Molecules are shown by their SMILES.

The subject of assay [1] is C-myc DNA (NHE III1 promoter fragment duplex) (DNA, duplex) GGGAGGGTGGGGAAGG/CCTTCCCCACCCTCCC
The experiment in a line: fluorescence quenching titration (double-log plot). As to conditions: Tris-HCl buffer 100 mM (no metal cations given); 100 mM Tris-HCl, pH 7.4; 298 K; 1 μM compound; double-log fit, apparent.

Assay [2] has as its system p53 DNA (P1 promoter fragment duplex) (DNA, duplex) CCTCCTCCCCAACTCC/GGAGTTGGGGAGGAGG
In words: fluorescence quenching titration (double-log plot). Conditions: Tris-HCl buffer 100 mM (no metal cations given); 100 mM Tris-HCl, pH 7.4; 298 K; 1 μM compound; double-log fit, apparent.

For the compound `OCCCCc1ccc2ccc3cccc4ccc1c2c34`, the Kb in assay [1] came to 1390 L/mol; in assay [2] it was 2040 L/mol.
The matching figures for `Oc1ccc2ccc3cccc4ccc1c2c34`: 404000 L/mol and 1.16e+06 L/mol.

The values above are taken from publication PMC6268327 (2012).
